Data taken from patent publication US9375450B2, “Vaginal tissue rejuvenation compositions and methods” (priority 2011, dated 2016).

Assays:
[1] = test system: rat vaginal Collagen I, Collagen III, Collagen V protein; test: Immunofluorescence of vaginal collagen protein expression after 2 weeks vaginal suppositories; assay type: in vivo; conditions: OVX rats, vaginal suppositories 2 weeks, mean±SD; for ratio of vaginal Collagen I to Collagen III protein expression: placebo 1.16±0.2; for ratio of vaginal Collagen I to Collagen V protein expression: placebo 1.28±0.3
Experimental: Ten to 12-weeks old female ovariectomized (OVX) Sprague-Dawley rats were utilized for the experiments. The animals were acclimatized to the environmental conditions before starting the experiment. The animals were housed individually and were allowed free access to water and rodent food. […] The suppositories were prepared according to the fusion method, using a polypeg suppository base ([…]., USA). […] Using a microwave, the suppository base was melted in a small beaker for 3 min and then transferred and kept into a water bath at a temperature of 55° C. The proper amount of above reagent was added to the liquefied base and meticulously crushed with a smooth rounded-end glass rod for about 20 min to make the solution to be even and clear. A pipette tip was used to suck some amount of solution and push it into a plastic tube with a diameter of 3.5 mm, and the tube was immediately left on the flat surface of an ice bucket. The suppository turned to white in color when it was solid. The moulded suppository was then pushed out of the tube using a round rod. […] After 30 min of cooling at room temperature, the suppositories were stored at 4° C. in a closed chamber until use. They were left to reach room temperature before use. The day after the last treatment the rats were overnight fasted and then sacrificed. Macroscopic measurement (genital hiatus, vaginal length) were taken and the vagina was dissected out carefully to avoid any injury to the vagina. The mid section of the vagina was utilized for histology (H and E stain, Masson's trichrome stain) and immunofluorescence and the rest of the vagina was used for RNA extraction and RT-PCR. Samples were incubated with three different antibodies, collagen I, III and anti-actin or collagen I and V and anti-actin. Frozen tissues samples were cut into sections of 6 μm and fixed for 10 min with acetone, followed by five washes of phosphate-buffered saline (PBS). […] After that, sections were incubated with the secondary antibody for one hour in the dark, at room temperature, followed by five washes of PBS. […] Alexa Fluor 405 Goat Anti-Mouse IgG (1:400) (Invitrogen); Cy3-AffiniPure Goat Anti-Mouse IgM (1:400) (Jackson ImmunoResearch Laboratories, West Grove, Pa.); Alexa Fluor 647 (1;200) phalloidin (Invitrogen). […] Four images were obtained per section. Images were capture with an Orca II-ERG 12 bitt CCD camera in a Zeiss Apotome microscope with a 20× objective. The data was analyzed using Matamorph version 7.7.4 software. Results are represented as mean pixel intensity ratios per square area.

[2] = test system: ovariectomized (OVX) Sprague-Dawley rats; test: Macroscopic measurements (genital hiatus, vaginal length) after 2 weeks vaginal suppositories; assay type: in vivo, rat; conditions: vaginal suppositories 2 weeks (20 μM zinc sulfate, 10 nM GW501516, 0.01% estradiol), mean±SD; for genital hiatus (distance between the external urethral meatus and the mid anus): placebo 12.6±1.1; for vaginal length: placebo 14.1±1.1
Experimental: Ten to 12-weeks old female ovariectomized (OVX) Sprague-Dawley rats were utilized for the experiments. The animals were acclimatized to the environmental conditions before starting the experiment. The animals were housed individually and were allowed free access to water and rodent food. […] The suppositories were prepared according to the fusion method, using a polypeg suppository base ([…]., USA). […] Using a microwave, the suppository base was melted in a small beaker for 3 min and then transferred and kept into a water bath at a temperature of 55° C. The proper amount of above reagent was added to the liquefied base and meticulously crushed with a smooth rounded-end glass rod for about 20 min to make the solution to be even and clear. A pipette tip was used to suck some amount of solution and push it into a plastic tube with a diameter of 3.5 mm, and the tube was immediately left on the flat surface of an ice bucket. The suppository turned to white in color when it was solid. The moulded suppository was then pushed out of the tube using a round rod. […] After 30 min of cooling at room temperature, the suppositories were stored at 4° C. in a closed chamber until use. They were left to reach room temperature before use. The day after the last treatment the rats were overnight fasted and then sacrificed. Macroscopic measurement (genital hiatus, vaginal length) were taken and the vagina was dissected out carefully to avoid any injury to the vagina. The mid section of the vagina was utilized for histology (H and E stain, Masson's trichrome stain) and immunofluorescence and the rest of the vagina was used for RNA extraction and RT-PCR.

Row | Compound | ratio of vaginal Collagen I to Collagen III protein expression [1] [relative units] | ratio of vaginal Collagen I to Collagen V protein expression [1] [relative units] | genital hiatus (distance between the external urethral meatus and the mid anus) [2] [mm] | vaginal length [2] [mm]
1 | Cc1cc(SCc2sc(-c3ccc(C(F)(F)F)cc3)nc2C)ccc1OCC(=O)O [GW501516, 2-[2-methyl-4-([4-methyl-2-[4-(trifluoromethyl)phenyl)-1,3-thiazol-5-yl]methylsulfanyl]phenoxy]acetic acid] | 1.20±0.1 | 1.20±0.4 | 14.7±1.1 | 15.5±1.0
2 | O.O.O.O.O.O.O.O=S(=O)([O-])[O-].[Zn+2] [zinc sulfate, zinc sulfate heptahydrate] | 1.37±0.1 | 1.50±0.4 | 14.5±2.5 | 15.6±4.0
